From patent publication US12458614B2, “Therapeutic agents for improved mobility and cognitive function and for treating neurodegenerative diseases and lysosomal storage disorders” (priority 2017, dated 2025)

How the values were obtained:
[1] = tested on: Aspartylglucosaminuria patient fibroblasts; assay: Lysosomal volume via LysoTracker; format: cell-based, human; settings: 1 mM, 6 days
[2] = tested on: patient with Lewy Body dementia; assay: Case study, Lewy Body dementia; format: in vivo, human; settings: Lewy Body dementia patient
Protocol: The patient started taking acetyl-leucine (3 g/day for one week; 5 g/day thereafter) and was evaluated after four weeks. […] Medication was reduced to 3 g/day, and the patient was instructed to stop medication about two weeks later.

[3] = tested on: Mucopolysaccharidosis Type VII (MPS VII) patient fibroblasts; assay: Lysosomal volume via LysoTracker; format: cell-based, human; settings: 1 mM, 6 days
[4] = tested on: fibroblasts from NPC patients; assay: Relative lysosomal volume via LysoTracker; format: cell-based, human; settings: 1 mM
Protocol: A fibroblast cell line from an NPC patient was treated for 3 days with N-acetyl-DL-leucine (1 mM) and relative lysosomal volume was quantified via LysoTracker, a fluorescent dye that accumulates in acidic organelles. Increased LysoTracker fluorescence is indicative of an increase in lysosomal size and/or number, and is a hallmark of NPC cells.

patients with vertigo = settings: clinical results reported by various authors; cited from earlier work
[5] = tested on: patients with progressive supranuclear palsy; assay: Case studies, progressive supranuclear palsy; format: in vivo, human
Protocol: After 27 days of acetyl-leucine treatment, medication was stopped and the patient was re-examined 60 days later. […] Gait analysis was performed before treatment commenced. After 17 days of treatment, medication was stopped and the patient was re-examined 4 days later. […] Gait analysis was performed before treatment commenced. After three weeks of treatment, medication was stopped and the patient was re-examined.

[6] = tested on: amyloid precursor protein C-terminal fragments (APP-CTFs); assay: APP-CTF levels relative to total APP in the cerebellum; format: in vivo, mouse; settings: NPC1−/− mice, 0.1 g/kg body weight daily from 3 weeks, sacrificed at 8 weeks
Protocol: The Niemann-Pick Disease Type C (NPC) mouse model shares a number of pathological features with Alzheimer's disease (AD) as described herein. […] Mice were sacrificed at 8 weeks of age. Levels of amyloid precursor protein C-terminal fragments (APP-CTFs) were evaluated relative to total amyloid precursor protein (APP) levels in the cerebellum for wild type, untreated wild type NPC1^−/− mice, and AL-treated wild type NPC1^−/− mice. Levels of microtubule-associated protein 1A/1B-light chain 3-phosphatidylethanolamine conjugate (LC3-II) were also evaluated relative to levels of tubulin loading control for wild type, untreated wild type NPC1^−/− mice, and AL-treated wild type NPC1^−/− mice.

[7] = tested on: patient with frontotemporal dementia with parkinsonism; assay: Case study, frontotemporal dementia with parkinsonism; format: in vivo, human
From the text: After approximately one month of acetyl-leucine treatment, medication was stopped and the patient was re-examined 13 days later.

Npc1−/− mice = assay: Gait analysis (CatWalk); format: in vivo, mouse; settings: eight weeks of age
Protocol: (§1) Separate groups of Npc1^−/− and Npc1^+/+ mice were left untreated, as controls. Gait analysis was performed on mice at eight weeks of age using a CatWalk® 15.0 system according to manufacturer's instructions (Noldus, Nottingham, UK). Five runs were recorded per animal. CatWalk® parameters measured were: • 1. Stand Mean: average duration (s) of paws in contact with glass plate; • 2. Step Cycle: duration (s) between two consecutive contacts of the same paw; • 3. Duty Cycle: percentage of time paws in contact with plate compared with time to complete a step cycle; • 4. Step Sequence (AB): percentage of time spent walking in LF-RH-RF-LH alternating pattern (LF: left front; RH: right hind; RF: right front; LH left hind); • 5. Cadence: step per seconds in a trial; • 6. Diagonal Support: percentage of time with simultaneous contact of diagonal paws with the glass plate (RF&LH or RH&LF). Motor Function Analysis

wild-type (Npc1+/+) mice = assay: Gait analysis (CatWalk); format: in vivo, mouse; settings: eight weeks of age
Protocol: as §1

[8] = tested on: person with progressive postural imbalance; assay: Case study Example 22, get up and go test and cognition; format: in vivo, human
Protocol: Treatment with acetyl-DL-leucine (Tanganil®) was started because the patient was suffering from imbalance and gait disorder. They initiated a one-month course comprising nine 500 mg tablets taken three times a day (TID) with meals, i.e., a total daily dosage of 4.5 g.
The ability of the subject to move was measured in a home setting “get up and go test”. This test involved the subject rising unaided from their chair and walking the length of their living area to their kitchen. This was timed over seven consecutive days prior to treatment, and over the next seven consecutive days once treatment with Tanganil® had started.
The same subject then initiated another month of treatment, i.e. a further one-month course comprising nine 500 mg capsules taken TID with meals (total daily dosage of 4.5 g).

[9] = tested on: patient with GM1 Gangliosidosis; assay: Case study, GM1 Gangliosidosis; format: in vivo, human; settings: after one month, 1.5 g then 3 g per day
From the text: For example, to evaluate overall neurological status, mDRS, a four-domain scale (ambulation, manipulation, language and swallowing), may be applied. Cerebellar function may be evaluated using SARA, an eight-item clinical rating scale (gait, stance, sitting, speech, fine motor function and taxis; range 0-40, where 0 is the best neurological status and 40 the worst), and SCAFI, comprising the 8-m-Walking-Time (8MW; performed by having patients walking twice as quickly as possible from one line to another excluding turning), 9-Hole-Peg-Test (9HPT) and the number of “PATA” repetitions over 10 s. Subjective impairment and quality of life may be evaluated using the EQ-5D-5L questionnaire and VAS. To assess ocular motor function, 3-dimensional videooculography (EyeSeeCam) may be used to measure the peak velocity of saccades, gain of smooth pursuit, peak slow phase velocity of gaze-evoked nystagmus (gaze-holding function), peak slow phase velocity of optokinetic nystagmus, and gain of horizontal vestibulo-ocular reflex. To evaluate the cognitive state, WAIS-R or WISC-IV, and MoCA, assessing different cognitive domains, including attention and concentration, executive functions, memory, language, visuoconstructional skills, conceptual thinking, calculations, and orientation with a maximum of 30 points and a cut-off score of 26, may be used. […]

[10] = PSP Patient 4, after three weeks of treatment

CC(=O)NC(CC(C)C)C(=O)O (racemic) [acetyl-DL-leucine]
LysoTracker fluorescence vs untreated disease fibroblasts [1]: trend in reducing LysoTracker fluorescence toward control level | Patient report on treatment ([2]; after four weeks, 3 g/day then 5 g/day): increased fatigue and a deterioration of balance and speech | Patient report on decreased dose ([2]; reduced to 3 g/day): did not report improvement of symptomatology with the decreased dose | LysoTracker fluorescence vs untreated disease fibroblasts [3]: trend in reducing LysoTracker fluorescence toward control level | LysoTracker fluorescence (lysosomal volume) ([4]; NPC patient of mild clinical severity): significant decrease in LysoTracker fluorescence | LysoTracker fluorescence (lysosomal volume) ([4]; additional NPC patients of variable clinical severity, 72 hours): findings were replicated | improvement in vertigo symptomology (share of cases) (patients with vertigo): more than 95% | Symptoms after suspension ([5]; PSP Patient 1): symptoms worsened | PSPRS Score ([5]; PSP Patient 1, re-examined about two months later): remained stable | Dizziness and gait (patient report) ([5]; PSP Patient 1, under therapy, 27 days): significant reduction of dizziness and slight improvement of gait | Gait / hypokinetic rigid syndrome (patient report) ([5]; PSP Patient 2, 17 days of treatment): no significant improvement of gait or hypokinetic rigid syndrome | Gait / hypokinetic rigid syndrome (patient report) ([5]; PSP Patient 3, 17 days of treatment): no significant improvement of gait or hypokinetic rigid syndrome | Symptoms without medication ([5]; PSP Patient 4, after three months without medication): progression of hypokinetic-rigid syndrome | Gait analysis (summary) [5, 10]: improvement of gait with increased speed, max. speed, and step cycle length and reduction of track width, double stance and coefficient of variation | Gait and falls (patient report) [5, 10]: gait with increased subjective security and with reduced frequency of falls | APP-CTF levels relative to total APP, cerebellum [6]: lowering of APP-CTFs | Symptoms after suspension of treatment ([7]; re-examined 13 days after stop): symptoms worsened | Falls ([7]; under therapy): falls stopped | Speech ([7]; under therapy): improvement of speech | Gait ([7]; under therapy, 3 then 5 gram per day, about one month): significant improvement of gait | Gait properties vs untreated littermates (Npc1−/− mice): significantly improved gait | Gait properties vs untreated littermates (wild-type (Npc1+/+) mice): no significant difference in gait properties | Cognitive function (noticed by family) ([8]; after 2-3 weeks of treatment): significant improvement in their cognitive function, spatial awareness and general demeanor | Faster than pre-treatment, get up and go test ([8]; on treatment, 4.5 g daily): 25% | Average time, get up and go test ([8]; once treatment had started, 4.5 g daily, 40±3 prior to treatment): 30 ± 2 s | Side effects ([8]; over eighteen months, 4.5 g per day): no side effects | Improvements on second treatment ([8]; second one-month course, 4.5 g daily): rapidly returned | Clinical re-examination [9]: stable general condition, increased gait (more fluent), and stable stance in natural position
